Laboratory results reported in patent US12491185B2, “Inhibitors of mPTP” (NRG Therapeutics Ltd, priority 2023, dated 2025).

Assays:
mPTP [1] = assay: mPTP activity (Ca2+ retention) assay in isolated rat liver mitochondria; type: biochemical; conditions: examples tested by different contract research organisations, believed comparable
Outline: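 pIC50 was taken from Fluo5N fluorescence at 10 min after a 75 μM CaCl2 bolus, scaled between DMSO (0%) and 5 μM cyclosporin A (100%). Compounds, ten half-log concentrations from 30 μM to 1 nM final, sat 10 min at RT with fresh female Sprague Dawley rat liver mitochondria energized by succinate plus rotenone.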

mPTP [2] = assay: mPTP activity assay in isolated rat brain mitochondria; type: biochemical; conditions: fluorescence at 10 min timepoint
Outline: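 Fresh brain mitochondria from female Sprague Dawley rats, digitonin-washed, in pH 7.4 mannitol/MOPS/KCl buffer with pyruvate, malate, ADP, oligomycin A and 2 μM Fluo5N. Preincubated with compounds 10 min at RT. Fluo5N fluorescence then read every 3 sec for 10 min on FLIPR Tetra.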

Row | Compound | mPTP Rat liver pIC50 (mPTP [1]) | mPTP Rat brain pIC50 (mPTP [2])
1 | COC(CNC(=O)c1nn(C)c(=O)[nH]1)Cc1ccccc1 (stereo not shown) [Example 43, N-(2-methoxy-3-phenylpropyl)-1-methyl-5-oxo-4,5-dihydro-1H-1,2,4-triazole-3-carboxamide] | 5.03 | 6.81
2 | CCC(C)(CNC(=O)c1nn(C)c(=O)[nH]1)Cc1ccccc1 (stereo not shown) [Example 44, N-(2-benzyl-2-methylbutyl)-1-methyl-5-oxo-4,5-dihydro-1H-1,2,4-triazole-3-carboxamide] | 6.23 | 7.41
3 | O=C(NCC1(Cc2ccccc2)CCCCC1)c1cncc(=O)[nH]1 [Example 47, N-((1-benzylcyclohexyl)methyl)-6-oxo-1,6-dihydropyrazine-2-carboxamide] | 4.71 | 6.91
4 | O=C(NCC1(Cc2ccccc2)CC(F)(F)C1)c1cncc(=O)[nH]1 [Example 48, N-((1-benzyl-3,3-difluorocyclobutyl)methyl)-6-oxo-1,6-dihydropyrazine-2-carboxamide] | 4.56 | 5.99
5 | O=C(NCC1(Cc2cccc(F)c2)CCC1)c1cncc(O)n1 [Example 49, N-((1-(3-fluorobenzyl)cyclobutyl)methyl)-6-hydroxypyrazine-2-carboxamide] | 4.56 | 7.44
6 | O=C(NCC1(Cc2ccc(F)cc2)CCC1)c1cncc(O)n1 [Example 50, N-((1-(4-fluorobenzyl)cyclobutyl)methyl)-6-hydroxypyrazine-2-carboxamide] | 4.66 | 7.23
7 | Cn1nc(C(=O)NCC(Cc2ccccc2)C2CCC2)[nH]c1=O (stereo not shown) [Example 51, N-(2-cyclobutyl-3-phenylpropyl)-1-methyl-5-oxo-4,5-dihydro-1H-1,2,4-triazole-3-carboxamide] | 5.62 | 6.84
8 | CC(c1ccc(F)cc1F)C1(CNC(=O)c2nn(C)c(=O)[nH]2)CCC1 (stereo not shown) [Example 52, N-((1-(1-(2,4-difluorophenyl)ethyl)cyclobutyl)methyl)-1-methyl-5-oxo-4,5-dihydro-1H-1,2,4-triazole-3-carboxamide] | 6.41 | 7.64
9 | Cn1nc(C(=O)NCC(Cc2ccccc2)C2CC2)[nH]c1=O (stereo not shown) [Example 53, N-(2-cyclopropyl-3-phenylpropyl)-1-methyl-5-oxo-4,5-dihydro-1H-1,2,4-triazole-3-carboxamide] | 6.46 | 7.46
10 | CC(C)(CNC(=O)c1ccc(=O)[nH]n1)Cc1ccccc1 [Example 56] | 5.76 | 6.73
11 | CC(C)(CNC(=O)c1ccc2oc(=O)[nH]c2c1)Cc1ccccc1 [Example 57] | 5.43 | 6.25
12 | O=C(NCC1(Cc2ccccn2)CCC1)c1cncc(=O)[nH]1 [Example 62, 6-oxo-N-((1-(pyridin-2-ylmethyl)cyclobutyl)methyl)-1,6-dihydropyrazine-2-carboxamide] | 4.85 | 5.16
13 | Cc1n[nH]c(C(=O)NCC2(Cc3ccccc3)CCC2)n1 [Example 64, N-((1-benzylcyclobutyl)methyl)-3-methyl-1H-1,2,4-triazole-5-carboxamide] | <4.52 | 4.64
14 | Cn1nc(C(=O)NCC(Cc2cccc(F)c2)C2CC2)[nH]c1=O (stereo not shown) [Example 78, N-(2-Cyclopropyl-3-(3-fluorophenyl)propyl)-1-methyl-5-oxo-4,5-dihydro-1H-1,2,4-triazole-3-carboxamide] | 6.59 | 7.28
15 | Cn1nc(C(=O)NCC2(Cc3cccc(Cl)c3)CCC2)[nH]c1=O [Example 79, N-((1-(3-Chlorobenzyl)cyclobutyl)methyl)-1-methyl-5-oxo-4,5-dihydro-1H-1,2,4-triazole-3-carboxamide] | 6.39 | 7.59
16 | CCC(CNC(=O)c1nn(C)c(=O)[nH]1)Cc1cccs1 (stereo not shown) [Example 80, 1-Methyl-5-oxo-N-(2-(thiophen-2-ylmethyl)butyl)-4,5-dihydro-1H-1,2,4-triazole-3-carboxamide] | 5.77 | 6.29
17 | Cn1nc(C(=O)NCC2(Cc3cc(F)ccc3F)CCC2)[nH]c1=O [Example 81, N-((1-(2,5-Difluorobenzyl)cyclobutyl)methyl)-1-methyl-5-oxo-4,5-dihydro-1H-1,2,4-triazole-3-carboxamide] | 6.85 | 6.51
18 | Cc1ccc(F)c(CC2(CNC(=O)c3nn(C)c(=O)[nH]3)CCC2)c1 [Example 83, N-((1-(2-Fluoro-5-methylbenzyl)cyclobutyl)methyl)-1-methyl-5-oxo-4,5-dihydro-1H-1,2,4-triazole-3-carboxamide] | 6.04 | 7.27

Row | Compound | mPTP Rat liver pIC50 (mPTP [1]) | mPTP Rat brain pIC50 (mPTP [2])
19 | Cn1nc(C(=O)NCC2(Cc3cccc(F)c3)CCC2)[nH]c1=O [Example 84, N-((1-(3-Fluorobenzyl)cyclobutyl)methyl)-1-methyl-5-oxo-4,5-dihydro-1H-1,2,4-triazole-3-carboxamide] | 6.72 | 7.72
20 | Cn1nc(C(=O)NCC2(Cc3ccc(F)cc3F)CCCC2)[nH]c1=O [Example 92, N-((1-(2,4-Difluorobenzyl)cyclopentyl)methyl)-1-methyl-5-oxo-4,5-dihydro-1H-1,2,4-triazole-3-carboxamide] | 6.31 | 7.54
21 | Cn1nc(C(=O)NCC2(Cc3cccc(F)c3F)CCC2)[nH]c1=O [Example 95, N-((1-(2,3-Difluorobenzyl)cyclobutyl)methyl)-1-methyl-5-oxo-4,5-dihydro-1H-1,2,4-triazole-3-carboxamide] | 6.16 | 7.39
22 | CC[C@H](CNC(=O)c1nn(C)c(=O)[nH]1)Cc1ccc(F)cc1F [Example 98, (S)—N-(2-(2,4-Difluorobenzyl)butyl)-1-methyl-5-oxo-4,5-dihydro-1H-1,2,4-triazole-3-carboxamide] | 6.59 | 7.78
23 | Cn1nc(C(=O)NCC2(Cc3cccc(Br)c3)CCC2)[nH]c1=O [Example 99, N-((1-(3-Bromobenzyl)cyclobutyl)methyl)-1-methyl-5-oxo-4,5-dihydro-1H-1,2,4-triazole-3-carboxamide] | 5.89 | 7.68
24 | Cn1nc(C(=O)NCC2(Cc3cccc(C#N)c3)CCC2)[nH]c1=O [Example 100, N-((1-(3-Cyanobenzyl)cyclobutyl)methyl)-1-methyl-5-oxo-4,5-dihydro-1H-1,2,4-triazole-3-carboxamide] | 5.99 | 6.32
25 | Cn1nc(C(=O)NCC2(Cc3cc(F)cc(F)c3)CCC2)[nH]c1=O [Example 116, N-((1-(3,5-difluorobenzyl)cyclobutyl)methyl)-1-methyl-5-oxo-4,5-dihydro-1H-1,2,4-triazole-3-carboxamide] | 6.04 | 6.45
26 | Cn1nc(C(=O)NCC2(Cc3ccc(F)cc3F)CCOCC2)[nH]c1=O [Example 121] | 6.67 | 7.1
27 | Cc1cc(F)ccc1C[C@@H](CNC(=O)c1nn(C)c(=O)[nH]1)C1CC1 [Example 131] | 7.01 | 7.85
28 | O=C(NCC1(Cc2ccc(F)cc2F)CCC1)c1c[nH]c(=O)cn1 [Example 132] | 6.08 | 7.31
29 | O=C(NCC1(Cc2ccc(F)c(F)c2)CCC1)c1nccc(=O)[nH]1 [Example 133] | 6.51 | 7.5
30 | Cn1nc(C(=O)NCC2(Cc3ccc(F)c(F)c3)CCC2)[nH]c1=O [Example 142, N-((1-(3,4-difluorobenzyl)cyclobutyl)methyl)-1-methyl-5-oxo-4,5-dihydro-1H-1,2,4-triazole-3-carboxamide] | 7.04 | 7.42
31 | O=C(NCC1(Cc2cc(F)ccc2F)CCC1)c1nccc(=O)[nH]1 [Example 146] | 6.85 | 7.62
32 | O=C(NC[C@H](Cc1ccc(F)cc1F)C1CC1)c1cncc(=O)[nH]1 [Example 149] | 6.32 | 7.07
33 | Cn1nc(C(=O)NC[C@H](Cc2ccc(F)c(F)c2)C2CC2)[nH]c1=O [Example 150] | 7.08 | 7.61
34 | O=C(NCC1(Cc2ccc(F)cc2F)CCCC1)c1cncc(=O)[nH]1 [Example 152] | 6.19 | 7.44
35 | O=C(NC[C@H](Cc1cc(F)ccc1F)C1CC1)c1nccc(=O)[nH]1 [Example 153] | 6.22 | 7.12
